Laboratory results: patent US20250313553A1, “ANNULATED 2-AMINO-3-CYANO THIOPHENES AND DERIVATIVES FOR THE TREATMENT OF CANCER” (Boehringer Ingelheim Int'l GmbH Corp., priority 2021, published 2025)

Key:
[1] = target: T1, KRAS (G13D) and SOS1 (Homo sapiens, UniProt P01116, C118S/G13D); test: KRAS::SOS1 AlphaScreen binding assay, KRAS G13D
T1 construct: KRAS (G13D) 1-169, N-terminal 6His-tag for purification; 6His (N, cleaved yes); TEV cleavage site
Description: This assay can be used to examine the potency with which compounds according to the invention binding to (mutated) KRAS inhibit the protein-protein interaction between SOS1 and (mutated) KRAS e.g., KRAS WT, KRAS G12C, KRAS G12D, KRAS G12V or KRAS G13D. […] Low IC50 values in this assay setting are indicative of strong inhibition of protein-protein interaction between SOS1 and KRAS:
These assays measure the inhibitory effect of compounds on KRAS mutant protein-protein interactions using the Alpha Screen technology by Perkin Elmer. […]
Plates are kept at room temperature in a darkened incubator. After an additional 60 minutes incubation time the signal is measured in a PerkinElmer Envision HTS Multilabel Reader using the AlphaScreen specs from PerkinElmer. […]
As internal control known inhibitors of KRAS mutant::SOS1 interaction can be measured on each compound plate. […]

[2] = test system: AsPC-1 cells; test: AsPC-1 CTG proliferation assay (120 h); type: cell-based; details: Homo sapiens, ASPC1, pancreatic cancer, G12D
Protocol: The CTG assay is designed to measure quantitatively the proliferation of AsPC-1 cells (ATCC […]), using the CellTiter Glow Assay Kit (Promega G7571). Cells are grown in RPMI medium (ATCC) supplemented with Fetal Calf Serum (Life Technologies, Gibco BRL, Cat. No. 10270-106). On “day 0” 2000 AsPC-1 cells are seeded in 60 μL RPMI ATCC+10% FCS+Penstrep in a 384-well plate, flat and clear bottom (Greiner, PNr. 781091). Cells are then incubated in the plates at 37° C. in a CO2 incubator overnight. On day 1, compounds (10 mM stock in DMSO) are added with the ECHO acoustic liquid handler system (Beckman Coulter), including DMSO controls. Plates are incubated for 120 h, and cell viability is measured using CellTiter-Glo luminescent cell viability reagent (Promega product code G7570). Viability (stated as percent of control) is defined as relative luminescence units RLU of each well divided by the RLU of cells in DMSO controls. IC50 values are determined from viability measurements by non-linear regression using a four-parameter model.

[3] = test system: NCI-H358 cells; test: NCI-H358 CTG proliferation assay (120 h), assay 1; type: cell-based; details: Homo sapiens, 96 well, 2000 cells per well
Protocol: NCI-H358 cells (ATCC No. CRL-5807) are dispensed into white bottom opaque 96 well plates (Perkin Elmer cat no. 5680) at a density of 2000 cells per well in 100 μL RPMI-1640 ATCC-Formulation (Gibco #A10491)+10% FCS (fetal calf serum) (assay 1) or into black 384-well plates, flat and clear bottom (Greiner, PNr. 781091) at a density of 200 cells per well in 60 μl RPMI-1640 ATCC-Formulation (Gibco #A10491)+10% FCS (fetal calf serum) (assay 2). […] Compounds (10 mM stock in DMSO) are added at logarithmic dose series using the HP Digital Dispenser D300 (Tecan) (assay 1) or the ECHO acoustic liquid handler system (Beckman Coulter) (assay 2), normalizing for added DMSO and including DMSO controls. For the T0 time point measurement, untreated cells are analyzed at the time of compound addition. Plates are incubated for 120 h, and cell viability is measured using CellTiter-Glo luminescent cell viability reagent (Promega product code G7570). Viability (stated as percent of control) is defined as relative luminescence units RLU of each well divided by the RLU of cells in DMSO controls. IC50 values are determined from viability measurements by non-linear regression using a four-parameter model.

T1 sequence (P01116 1-169 isoform P01116-2 G13D/C118S): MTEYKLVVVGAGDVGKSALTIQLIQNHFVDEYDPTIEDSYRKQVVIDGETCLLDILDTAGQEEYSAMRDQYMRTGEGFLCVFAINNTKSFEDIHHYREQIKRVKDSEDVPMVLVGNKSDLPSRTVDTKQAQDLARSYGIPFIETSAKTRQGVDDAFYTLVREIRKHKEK

Structure (SMILES) | IC50 [1] [µM] | IC50 [2] [µM] | IC50 [3] [µM]
C[C@H]1CN(C)CCN1c1cccc(-c2noc([C@@]3(C)CCCc4sc(N)c(C#N)c43)n2)n1 [Example V-1] | 0.928 | 7.24 | –
C[C@H](Oc1cccc(-c2noc([C@@]3(C)CCCc4sc(N)c(C#N)c43)n2)n1)[C@@H]1CCCN1C [Example V-8] | 0.176 | 3.95 | –
CC(C)N1CCCN(c2nccc(-c3noc([C@@]4(C)CCCc5sc(N)c(C#N)c54)n3)n2)[C@@H](C)C1 [Example V-9] | – | – | 0.698
C[C@H](Oc1nccc(-c2noc([C@@]3(C)CCCc4sc(N)c(C#N)c43)n2)n1)[C@@H]1CCCN1C [Example V-10] | – | – | 5.41
C[C@H](Oc1ccnc(-c2noc([C@@]3(C)CCCc4sc(N)c(C#N)c43)n2)n1)[C@@H]1CCCN1C [Example V-11] | – | 3.7 | –
